# pIC50: −log10 of the molar value.
# Key:
# Format in all cases: cell-based
# MHCC97H cells = experiment: Assay for inhibiting the proliferation of MHCC97H cells (CCK-8); conditions: Homo sapiens
# Summary of the method: (§1)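 Cells seeded in 96-well plates overnight, then exposed 72 h to 9 three-fold dilutions of compound (0.25% DMSO final). Viability by CCK-8 (1-2 h at 37° C., OD 450 nm), survival normalized to untreated and cell-free blanks; IC50 by curve fitting.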
# [1] = test system: Ba/F3 LMNA-NTRK1-G595R cells; experiment: Assay for inhibiting the proliferation of Ba/F3 LMNA-NTRK1-G595R cells (CCK-8); conditions: Mus musculus, BaF3
# Summary of the method: as §1
# EBC1 cells = experiment: Assay for inhibiting the proliferation of EBC1 cells (CCK-8); conditions: Homo sapiens, EBC-1
# Summary of the method: as §1
Compound,pIC50 [1],pIC50 (MHCC97H cells),pIC50 (EBC1 cells)
"Cn1cc(C(=O)Nc2ccc(Oc3ccnc4cc(OCCCN5CCCCC5)c5c(c34)OCCO5)c(F)c2)c(=O)n(-c2ccc(F)cc2)c1=O [Example 39, N-(3-fluoro-4-((5-(3-(piperidin-1-yl)propoxy)-2,3-dihydro-[1,4]dioxino[2,3-f]quinolin-10-yl)oxy)phenyl)-3-(4-fluorophenyl)-1-methyl-2,4-dioxo-1,2,3,4-tetrahydropyrimidine-5-carboxamide]",6.70 to 7.30,6.70 to 7.30,≥ 7.30
"Cn1cc(C(=O)Nc2ccc(Oc3ccnc4cc(OCCCN5CCOCC5)c5c(c34)OCCO5)c(F)c2)c(=O)n(-c2ccc(F)cc2)c1=O [Example 15, N-(3-fluoro-4-((5-(3-morpholinopropoxy)-2,3-dihydro-[1,4]dioxino[2,3-f]quinolin-10-yl)oxy)phenyl)-3-(4-fluorophenyl)-1-methyl-2,4-dioxo-1,2,3,4-tetrahydropyrimidine-5-carboxamide]",6.70 to 7.30,≥ 7.30,≥ 7.30
"CCn1cc(C(=O)Nc2ccc(Oc3ccnc4cc(OCC(C)(C)O)c5c(c34)OCCO5)cc2)c(=O)n(-c2ccc(F)cc2)c1=O [Example 150, N-(4-((5-(2-hydroxy-2-methylpropoxy)-2,3-dihydro-[1,4]dioxino[2,3-f]quinolin-10-yl)oxy)phenyl)-3-(4-fluorophenyl)-1-ethyl-2,4-dioxo-1,2,3,4-tetrahydropyrimidine-5-carboxamide]",< 6.00,–,–
"CCn1cc(C(=O)Nc2ccc(Oc3ccnc4cc(OCCCN5CCOCC5)c5c(c34)OCCO5)c(F)c2)c(=O)n(-c2ccc(F)cc2)c1=O [Example 38, N-(3-fluoro-4-((5-(3-morpholinopropoxy)-2,3-dihydro-[1,4]dioxino[2,3-f]quinolin-10-yl)oxy)phenyl)-3-(4-fluorophenyl)-1-ethyl-2,4-dioxo-1,2,3,4-tetrahydropyrimidine-5-carboxamide]",6.00 to 6.70,–,–
"CCn1cc(C(=O)Nc2ccc(Oc3ccnc4cc(OCCOC)c5c(c34)OCCO5)cc2)c(=O)n(-c2ccc(F)cc2)c1=O [Example 148, N-(4-((5-(2-methoxyethoxy)-2,3-dihydro-[1,4]dioxino[2,3-f]quinolin-10-yl)oxy)phenyl)-3-(4-fluorophenyl)-1-ethyl-2,4-dioxo-1,2,3,4-tetrahydropyrimidine-5-carboxamide]",6.00 to 6.70,–,–
"CC(C)n1cc(C(=O)Nc2ccc(Oc3ccnc4cc(OCC(C)(C)O)c5c(c34)OCCO5)c(F)c2)c(=O)n(-c2ccc(F)cc2)c1=O [Example 122, N-(3-fluoro-4-((5-(2-hydroxy-2-methylpropoxy)-2,3-dihydro-[1,4]dioxino[2,3-f]quinolin-10-yl)oxy)phenyl)-3-(4-fluorophenyl)-1-isopropyl-2,4-dioxo-1,2,3,4-tetrahydropyrimidine-5-carboxamide]",6.00 to 6.70,–,–
"CCn1cc(C(=O)Nc2ccc(Oc3ccnc4cc(OCCCN5CCCCC5)c5c(c34)OCCO5)c(F)c2)c(=O)n(-c2ccc(F)cc2)c1=O [Example 41, N-(3-fluoro-4-((5-(3-(piperidin-1-yl)propoxy)-2,3-dihydro-[1,4]dioxino[2,3-f]quinolin-10-yl)oxy)phenyl)-3-(4-fluorophenyl)-1-ethyl-2,4-dioxo-1,2,3,4-tetrahydropyrimidine-5-carboxamide]",6.70 to 7.30,6.70 to 7.30,≥ 7.30

# Second part, led by results:
pIC50 [1],Compound,pIC50 (MHCC97H cells),pIC50 (EBC1 cells)
≥ 7.30,"COc1cc2nccc(Oc3cc(C)c(NC(=O)c4cn(C)c(=O)n(-c5ccc(F)cc5)c4=O)cc3F)c2c2c1OCCO2 [Example 177, N-(5-fluoro-4-((5-methoxy-2,3-dihydro-[1,4]dioxino[2,3-f]quinolin-10-yl)oxy)-2-methylphenyl)-3-(4-fluorophenyl)-1-methyl-2,4-dioxo-1,2,3,4-tetrahydropyrimidine-5-carboxamide]",6.70 to 7.30,–
≥ 7.30,"COCCOc1cc2nccc(Oc3cc(C)c(NC(=O)c4cn(C)c(=O)n(-c5ccc(F)cc5)c4=O)cc3F)c2c2c1OCCO2 [Example 179, N-(5-fluoro-4-((5-(2-methoxyethoxy)-2,3-dihydro-[1,4]dioxino[2,3-f]quinolin-10-yl)oxy)-2-methylphenyl)-3-(4-fluorophenyl)-1-methyl-2,4-dioxo-1,2,3,4-tetrahydropyrimidine-5-carboxamide]",≥ 7.30,–
≥ 7.30,"CCn1cc(C(=O)Nc2cc(F)c(Oc3ccnc4cc(OCCOC)c5c(c34)OCCO5)cc2C)c(=O)n(-c2ccc(F)cc2)c1=O [Example 180, N-(5-fluoro-4-((5-(2-methoxyethoxy)-2,3-dihydro-[1,4]dioxino[2,3-f]quinolin-10-yl)oxy)-2-methylphenyl)-3-(4-fluorophenyl)-1-ethyl-2,4-dioxo-1,2,3,4-tetrahydropyrimidine-5-carboxamide]",≥ 7.30,–
≥ 7.30,"COc1cc2nccc(Oc3cc(Cl)c(NC(=O)c4cn(C)c(=O)n(-c5ccc(F)cc5)c4=O)cc3F)c2c2c1OCCO2 [Example 116, N-(2-chloro-5-fluoro-4-((5-methoxy-2,3-dihydro-[1,4]dioxino[2,3-f]quinolin-10-yl)oxy)phenyl)-3-(4-fluorophenyl)-1-methyl-2,4-dioxo-1,2,3,4-tetrahydropyrimidine-5-carboxamide]",6.70 to 7.30,≥ 7.30
6.70 to 7.30,"COCCOc1cc2nccc(Oc3ccc(NC(=O)c4cn(C)c(=O)n(-c5ccc(F)cc5)c4=O)cc3F)c2c2c1OCCO2 [Example 42, N-(3-fluoro-4-((5-(2-methoxyethoxy)-2,3-dihydro-[1,4]dioxino[2,3-f]quinolin-10-yl)oxy)phenyl)-3-(4-fluorophenyl)-1-methyl-2,4-dioxo-1,2,3,4-tetrahydropyrimidine-5-carboxamide]",≥ 7.30,≥ 7.30
6.00 to 6.70,"COc1cc2ncnc(Oc3ccc(NC(=O)c4cn(C)c(=O)n(-c5ccc(F)cc5)c4=O)cc3F)c2c2c1OCCO2 [Example 29, N-(3-fluoro-4-((5-methoxy-2,3-dihydro-[1,4]dioxino[2,3-f]quinazolin-10-yl)oxy)phenyl)-3-(4-fluorophenyl)-1-methyl-2,4-dioxo-1,2,3,4-tetrahydropyrimidine-5-carboxamide]",–,–
< 6.00,"COc1cc2nccc(Oc3ccc(NC(=O)c4cn(C)c(=O)n(-c5ccc(F)cc5)c4=O)cc3)c2c2c1OCCO2 [Example 145, N-(4-((5-methoxy-2,3-dihydro-[1,4]dioxino[2,3-f]quinolin-10-yl)oxy)phenyl)-3-(4-fluorophenyl)-1-methyl-2,4-dioxo-1,2,3,4-tetrahydropyrimidine-5-carboxamide]",–,–
6.70 to 7.30,"CCn1cc(C(=O)Nc2ccc(Oc3ccnc4cc(OC)c5c(c34)OCCO5)c(F)c2)c(=O)n(-c2ccc(F)cc2)c1=O [Example 37, N-(3-fluoro-4-((5-methoxy-2,3-dihydro-[1,4]dioxino[2,3-f]quinolin-10-yl)oxy)phenyl)-3-(4-fluorophenyl)-1-ethyl-2,4-dioxo-1,2,3,4-tetrahydropyrimidine-5-carboxamide]",–,–
6.70 to 7.30,"Cn1cc(C(=O)Nc2ccc(Oc3ccnc4cc(OCC(C)(C)O)c5c(c34)OCCO5)cc2Cl)c(=O)n(-c2ccc(F)cc2)c1=O [Example 141, N-(2-chloro-4-((5-(2-hydroxy-2-methylpropoxy)-2,3-dihydro-[1,4]dioxino[2,3-f]quinolin-10-yl)oxy)phenyl)-3-(4-fluorophenyl)-1-methyl-2,4-dioxo-1,2,3,4-tetrahydropyrimidine-5-carboxamide]",–,–

# Reference: US12202835B2, “Substituted aromatic ring-linked dioxinoquinazolines and dioxinoquinolines as kinase inhibitors” (BEIJING SCITECH-MQ PHARMACEUTICALS LIMITED, priority 2018, dated 2025)
